Laboratory results: patent US20100056508A1, “AMINE DERIVATIVES AND THEIR USE IN BETA-2-ADRENORECEPTOR MEDIATED DISEASES” (ASTRAZENECA AB, priority 2006, published 2010)

Target: T1, recombinant human α1D receptor (Homo sapiens, UniProt P25100)
T1 construct: expressed in transfected cells; host or cells: human embryonic kidney 293 cells (HEK93 [sic]), membranes
T1 sequence (P25100 1-572): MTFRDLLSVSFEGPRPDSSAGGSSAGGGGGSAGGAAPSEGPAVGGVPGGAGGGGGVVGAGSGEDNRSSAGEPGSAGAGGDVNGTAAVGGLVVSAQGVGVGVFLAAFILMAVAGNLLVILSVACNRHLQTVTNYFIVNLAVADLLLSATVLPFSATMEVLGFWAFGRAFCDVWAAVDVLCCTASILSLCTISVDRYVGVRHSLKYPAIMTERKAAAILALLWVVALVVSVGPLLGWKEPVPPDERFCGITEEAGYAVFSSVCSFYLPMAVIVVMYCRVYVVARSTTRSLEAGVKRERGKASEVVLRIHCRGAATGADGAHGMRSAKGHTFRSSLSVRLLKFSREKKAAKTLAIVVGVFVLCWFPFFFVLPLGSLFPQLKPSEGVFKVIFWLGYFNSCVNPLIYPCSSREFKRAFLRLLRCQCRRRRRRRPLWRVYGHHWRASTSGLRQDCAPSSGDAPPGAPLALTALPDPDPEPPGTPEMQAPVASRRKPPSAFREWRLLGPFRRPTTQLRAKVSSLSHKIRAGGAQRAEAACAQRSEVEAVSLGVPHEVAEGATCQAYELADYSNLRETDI
Assay: Adrenergic α1D selectivity assay, [3H]-prazosin binding to membranes
Settings: inhibition of [3H]-prazosin binding, HEK cell membranes, read-out: α1 bind pIC50 (converted)
Outline: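 Competition binding on HEK293 membranes with recombinant human α1D receptor, 0.3 nM [3H]-prazosin, 50 mM HEPES/1 mM EDTA pH 7.4, 2 h at room temperature; filtration and scintillation counting. Non-specific binding defined with 10 μM BMY7378. pIC50 from four-parameter logistic fit of specific-binding inhibition.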

SMILES	IC50 [nM]
O=C(CCNCCc1cccc(Cl)c1)N(CCNCCc1ccc(O)c2[nH]c(=O)ccc12)C1CCCCC1 [Example 13, 3-(3-Chlorophenethylamino)-N-cyclohexyl-N-(2-(2-(8-hydroxy-2-oxo-1,2-dihydroquinolin-5-yl)ethylamino)ethyl)propanamide bis(trifluoroacetate)]	79.4
O=C1COc2c(CCNCCN(C(=O)CCNCCc3ccccc3)C3CCCCCC3)ccc(O)c2N1 [Example 24, N-Cycloheptyl-N-(2-(2-(5-hydroxy-3-oxo-3,4-dihydro-2H-benzo[b][1,4]oxazin-8-yl)ethylamino)ethyl)-3-(phenethylamino)propanamide bis(trifluoroacetate)]	50.1

Further lines, results first:

IC50 [nM]	SMILES
79.4	O=C1COc2c(CCNCCN(C(=O)CCNCCc3ccc(Cl)c(Cl)c3)C3CCCCCC3)ccc(O)c2N1 [Example 26, N-Cycloheptyl-3-(3,4-dichlorophenethylamino)-N-(2-(2-(5-hydroxy-3-oxo-3,4-dihydro-2H-benzo[b][1,4]oxazin-8-yl)ethylamino)ethyl)propanamide bis(trifluoroacetate)]
126	CCCC[C@@H](C)N(CCNCCc1ccc(O)c2c1OCC(=O)N2)C(=O)CCNCCc1ccc(F)c(Cl)c1 [Example 48, (R)-3-(3-Chloro-4-fluorophenethylamino)-N-(hexan-2-yl)-N-(2-(2-(5-hydroxy-3-oxo-3,4-dihydro-2H-benzo[b][1,4]oxazin-8-yl)ethylamino)ethyl)propanamide bis(trifluoroacetate)]
100	O=C1COc2c(CCNCCN(C(=O)CCNCCc3ccc(Cl)cc3)C3CCCCCC3)ccc(O)c2N1 [Example 63, 3-(4-Chlorophenethylamino)-N-cycloheptyl-N-(2-(2-(5-hydroxy-3-oxo-3,4-dihydro-2H-benzo[b][1,4]oxazin-8-yl)ethylamino)ethyl)propanamide bis(trifluoroacetate)]
